What was measured:
[1] = system: LPS-induced TNFα in monocyte-derived macrophages (MdM); test: MdM assay: LPS-triggered TNFα (ELISA); format: cell-based, human; conditions: Homo sapiens, Macrophage, 20 h, monocyte-derived macrophages, LPS 200 ng/mL, supernatant after 20 h; read-out: TNFα EC50
In short: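 Compound added 1 h before LPS (200 ng/mL final) to day-10 macrophages derived from magnetically isolated CD14+ human blood monocytes, DMSO held at 0.2%. TNFα secreted over 20 h of stimulation quantified by ELISA against a standard curve.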

[2] = target: T1, SIK3 (Homo sapiens, UniProt Q9Y2K2); test: ADP-Glo kinase assay, SIK3; format: biochemical; conditions: ADP-Glo SIK kinase assay
T1 construct: purchased SignalChem S12-11G-100
In short: (§1)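 ADP-Glo, RT throughout. Enz/substrate + ATP, 120 min; ADP-Glo reagent 40 min (ATP depletion); detection reagent 30 min; luminescence read. Neg ctrl 1% DMSO, pos ctrl 10 μM staurosporine, final concs.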

[3] = target: T2, SIK2 (Homo sapiens, UniProt Q9H0K1); test: ADP-Glo kinase assay, SIK2; format: biochemical; conditions: ADP-Glo SIK kinase assay
T2 construct: purchased ThermoFisher Scientific PV4792
In short: as §1

T1 sequence (Q9Y2K2 whole entry): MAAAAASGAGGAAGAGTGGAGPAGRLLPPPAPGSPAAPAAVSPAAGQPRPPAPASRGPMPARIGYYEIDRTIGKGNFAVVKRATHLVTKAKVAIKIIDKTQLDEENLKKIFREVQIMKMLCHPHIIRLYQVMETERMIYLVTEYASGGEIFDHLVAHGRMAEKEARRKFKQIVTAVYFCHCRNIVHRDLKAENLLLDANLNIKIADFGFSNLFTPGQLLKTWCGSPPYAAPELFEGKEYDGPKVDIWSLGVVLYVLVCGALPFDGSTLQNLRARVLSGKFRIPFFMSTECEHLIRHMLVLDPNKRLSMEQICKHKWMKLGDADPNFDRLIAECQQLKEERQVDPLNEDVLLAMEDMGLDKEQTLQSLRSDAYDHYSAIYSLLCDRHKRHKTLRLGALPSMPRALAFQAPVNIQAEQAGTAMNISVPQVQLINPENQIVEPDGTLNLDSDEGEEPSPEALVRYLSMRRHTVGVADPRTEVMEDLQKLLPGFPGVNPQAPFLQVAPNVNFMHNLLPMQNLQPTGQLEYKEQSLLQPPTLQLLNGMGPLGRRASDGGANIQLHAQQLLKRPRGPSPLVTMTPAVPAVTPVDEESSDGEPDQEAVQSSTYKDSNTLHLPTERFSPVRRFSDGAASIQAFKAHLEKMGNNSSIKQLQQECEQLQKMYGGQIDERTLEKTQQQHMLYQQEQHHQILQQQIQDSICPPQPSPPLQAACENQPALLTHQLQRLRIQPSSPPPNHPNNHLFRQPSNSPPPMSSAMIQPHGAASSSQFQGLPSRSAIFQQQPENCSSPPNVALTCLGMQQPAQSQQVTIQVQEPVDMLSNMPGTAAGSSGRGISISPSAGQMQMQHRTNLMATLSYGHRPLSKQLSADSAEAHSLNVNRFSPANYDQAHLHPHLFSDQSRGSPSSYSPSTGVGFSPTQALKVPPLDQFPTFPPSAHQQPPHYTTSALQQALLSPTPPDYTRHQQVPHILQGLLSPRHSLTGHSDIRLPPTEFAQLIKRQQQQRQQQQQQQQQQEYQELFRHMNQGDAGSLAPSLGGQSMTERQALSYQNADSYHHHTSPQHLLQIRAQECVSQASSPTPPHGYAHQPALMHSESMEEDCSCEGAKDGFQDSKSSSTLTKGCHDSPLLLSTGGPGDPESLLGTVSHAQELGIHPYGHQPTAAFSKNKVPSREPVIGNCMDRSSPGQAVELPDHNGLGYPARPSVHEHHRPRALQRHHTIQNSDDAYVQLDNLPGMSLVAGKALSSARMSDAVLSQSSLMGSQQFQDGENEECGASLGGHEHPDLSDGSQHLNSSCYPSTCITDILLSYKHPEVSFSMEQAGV
T2 sequence (Q9H0K1 whole entry): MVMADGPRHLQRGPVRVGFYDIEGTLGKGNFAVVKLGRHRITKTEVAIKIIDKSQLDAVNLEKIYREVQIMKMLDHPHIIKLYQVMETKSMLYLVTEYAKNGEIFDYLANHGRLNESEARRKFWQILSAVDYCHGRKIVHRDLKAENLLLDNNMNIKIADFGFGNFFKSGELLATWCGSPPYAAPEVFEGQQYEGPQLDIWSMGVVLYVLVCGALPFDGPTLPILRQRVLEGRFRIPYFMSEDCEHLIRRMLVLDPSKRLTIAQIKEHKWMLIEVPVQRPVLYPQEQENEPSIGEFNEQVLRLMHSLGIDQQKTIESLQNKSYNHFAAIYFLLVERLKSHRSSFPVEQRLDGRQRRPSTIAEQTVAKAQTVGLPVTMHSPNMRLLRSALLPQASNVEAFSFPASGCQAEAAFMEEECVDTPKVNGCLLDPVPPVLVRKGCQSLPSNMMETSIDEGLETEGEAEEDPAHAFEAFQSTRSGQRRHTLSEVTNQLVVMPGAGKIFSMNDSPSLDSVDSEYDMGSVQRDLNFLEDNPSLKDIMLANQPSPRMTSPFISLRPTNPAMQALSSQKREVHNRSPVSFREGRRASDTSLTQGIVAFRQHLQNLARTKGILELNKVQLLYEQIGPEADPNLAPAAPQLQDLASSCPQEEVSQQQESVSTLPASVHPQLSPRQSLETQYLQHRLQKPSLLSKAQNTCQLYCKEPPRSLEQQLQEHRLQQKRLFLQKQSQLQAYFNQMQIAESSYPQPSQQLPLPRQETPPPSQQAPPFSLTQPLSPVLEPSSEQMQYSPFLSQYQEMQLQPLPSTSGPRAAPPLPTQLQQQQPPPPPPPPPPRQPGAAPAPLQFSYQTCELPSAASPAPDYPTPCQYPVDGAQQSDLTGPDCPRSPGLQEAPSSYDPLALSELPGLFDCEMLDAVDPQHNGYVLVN

| Compound | EC50 [1] | IC50 [2] | IC50 [3] |
| --- | --- | --- | --- |
| COc1cc(-c2cnc3cc(OC(C)(C)CO)ccn23)cc(OC(F)F)c1C(=O)NC1CC1 [Cpd 209, N-cyclopropyl-2-(difluoromethoxy)-4-[7-(2-hydroxy-1,1-dimethyl-ethoxy)imidazo[1,2-a]pyridin-3-yl]-6-methoxy-benzamide] | 1000 to 5000 nM | 10 to 100 nM | > 500 nM |
| COc1cc(-c2cnc3cc(OCCCN4CC(O)C4)ccn23)cc(OC(F)F)c1C(=O)NC1CC1 [Cpd 286, N-cyclopropyl-2-(difluoromethoxy)-4-[7-[3-(3-hydroxyazetidin-1-yl)propoxy]imidazo[1,2-a]pyridin-3-yl]-6-methoxy-benzamide] | 1000 to 5000 nM | 0.01 to 10 nM | 0.01 to 10 nM |
| COc1cc(-c2cnc3cc(OCC4CN(C)C4)ccn23)cc2c1C(=O)N(CC(F)(F)F)CC2 [compound 39, 8-methoxy-6-[7-[(1-methylazetidin-3-yl)methoxy]imidazo[1,2-a]pyridin-3-yl]-2-(2,2,2-trifluoroethyl)-3,4-dihydro isoquinolin-1-one] | 100 to 1000 nM | 0.01 to 10 nM | 0.01 to 10 nM |
| COc1cc(-c2cnc3cc(OCCN4CCCCC4)ccn23)cc2c1C(=O)N(CC(F)(F)F)CC2 [compound 40, 8-methoxy-6-[7-[2-(1-piperidyl)ethoxy]imidazo [1,2-a]pyridin-3-yl]-2-(2,2,2-trifluoroethyl)-3,4-dihydroisoquinolin-1-one] | 100 to 1000 nM | 0.01 to 10 nM | 0.01 to 10 nM |
| COc1cc(-c2cnc3cc(OCCN4CCS(=O)(=O)CC4)ccn23)cc2c1C(=O)N(CC(F)(F)F)CC2 [compound 41, 6-[7-[2-(1,1-dioxo-1,4-thiazinan-4-yl)ethoxy]imidazo[1,2-a]pyridin-3-yl]-8-methoxy-2-(2,2,2-trifluoroethyl)-3,4-dihydroisoquinolin-1-one] | 1000 to 5000 nM | 0.01 to 10 nM | 0.01 to 10 nM |
| COc1cc(-c2cnc3cc(OCc4ccnn4C)ccn23)cc(OC(F)F)c1C(=O)NC1CC1 [compound 44, N-cyclopropyl-2-(difluoromethoxy)-6-methoxy-4-[7-[(2-methylpyrazol-3-yl)methoxy]imidazo[1,2-a]pyridin-3-yl] benzamide] | 100 to 1000 nM | 0.01 to 10 nM | 0.01 to 10 nM |
| COc1cc(-c2cnc3cc(OC(C)C(F)(F)F)ccn23)cc(OC(F)F)c1C(=O)NC1CC1 (stereo not drawn) [compound 45, N-cyclopropyl-2-(difluoromethoxy)-6-methoxy-4-[7-(2,2,2-trifluoro-1-methyl-ethoxy)imidazo[1,2-a]pyridin-3-yl]benzamide] | 100 to 1000 nM | 0.01 to 10 nM | 10 to 100 nM |
| COc1cc(-c2cnc3cc(OCCN(C)C)ccn23)cc2c1C(=O)N(CC(F)F)CC2 [compound 54, 2-(2,2-difluoroethyl)-6-[7-[2-(dimethylamino)ethoxy]imidazo [1,2-a]pyridin-3-yl]-8-methoxy-3,4-dihydro isoquinolin-1-one] | 100 to 1000 nM | 10 to 100 nM | 0.01 to 10 nM |
| COc1cc(-c2cnc3cc(OC[C@H]4CCCN4C)ccn23)cc(OC(F)F)c1C(=O)NC1CC1 [compound 81, N-cyclopropyl-2-(difluoromethoxy)-6-methoxy-4-[7-[[(2R)-1-methylpyrrolidin-2-yl]methoxy]imidazo[1,2-a]pyridin-3-yl]benzamide] | 100 to 1000 nM | 0.01 to 10 nM | 0.01 to 10 nM |
| CCN1CCCCC1COc1ccn2c(-c3cc(OC)c(C(=O)NC4CC4)c(OC(F)F)c3)cnc2c1 (stereo not drawn) [compound 83, N-cyclopropyl-2-(difluoromethoxy)-4-[7-[(1-ethyl-2-piperidyl)methoxy]imidazo [1,2-a]pyridin-3-yl]-6-methoxy-benzamide] | 100 to 1000 nM | 0.01 to 10 nM | 0.01 to 10 nM |
| COc1cc(-c2cnc3cc(OCC(C)(C)N)ccn23)cc(OC(F)F)c1C(=O)NC1CC1 [compound 104, 4-[7-(2-amino-2-methyl-propoxy)imidazo[1,2-a]pyridin-3-yl]-N-cyclopropyl-2-(difluoromethoxy)-6-methoxy-benzamide] | 1000 to 5000 nM | 0.01 to 10 nM | 0.01 to 10 nM |
| CCN(CC)CCOc1ccn2c(-c3cc(OC)c(C(=O)NC4CC4)c(OC(F)F)c3)cnc2c1 [compound 107, N-cyclopropyl-4-[7-[2-(diethylamino)ethoxy]imidazo[1,2-a]pyridin-3-yl]-2-(difluoromethoxy)-6-methoxy-benzamide] | 100 to 1000 nM | 0.01 to 10 nM | 0.01 to 10 nM |
| COc1cc(-c2cnc3cc(OC[C@H]4CCCCN4C)ccn23)cc(OC(F)F)c1C(=O)NC1CC1 [compound 111, N-cyclopropyl-2-(difluoromethoxy)-6-methoxy-4-[7-[[(2R)-1-methyl-2-piperidyl]methoxy]imidazo[1,2-a]pyridin-3-yl]benzamide] | 100 to 1000 nM | 0.01 to 10 nM | 0.01 to 10 nM |

Continued, values first:

| EC50 [1] | IC50 [2] | IC50 [3] | Compound |
| --- | --- | --- | --- |
| 100 to 1000 nM | 0.01 to 10 nM | 0.01 to 10 nM | COc1cc(-c2cnc3cc(OCCN4CC(F)(F)C4)ccn23)cc2c1C(=O)N(CC(F)(F)F)CC2 [Cpd 244, 6-[7-[2-(3,3-difluoroazetidin-1-yl)ethoxy]imidazo[1,2-a]pyridin-3-yl]-8-methoxy-2-(2,2,2-trifluoroethyl)-3,4-dihydroisoquinolin-1-one] |
| 100 to 1000 nM | 0.01 to 10 nM | 10 to 100 nM | COc1cc(-c2cnc3cc(OCCN4CCOC[C@@H]4C)ccn23)cc2c1C(=O)N(CC(F)(F)F)CC2 [Cpd 257, 8-methoxy-6-[7-[2-[(3S)-3-methylmorpholin-4-yl]ethoxy]imidazo[1,2-a]pyridin-3-yl]-2-(2,2,2-trifluoroethyl)-3,4-dihydroisoquinolin-1-one] |
| 0.1 to 100 nM | 0.01 to 10 nM | 0.01 to 10 nM | COc1cc(-c2cnc3cc(OCC(O)CN4CCCCC4)ccn23)cc(OC(F)F)c1C(=O)NC1CC1 (stereo not drawn) [Cpd 321, N-cyclopropyl-2-(difluoromethoxy)-4-[7-[2-hydroxy-3-(1-piperidyl)propoxy]imidazo [1,2-a]pyridin-3-yl]-6-methoxy-benzamide] |
| 100 to 1000 nM | 0.01 to 10 nM | 0.01 to 10 nM | COc1cc(-c2cnc3cc(OCCCN4CCC5(CC4)CNC(=O)O5)ccn23)cc(OC(F)F)c1C(=O)NC1CC1 [Cpd 324, N-cyclopropyl-2-(difluoromethoxy)-6-methoxy-4-[7-[3-(2-oxo-1-oxa-3,8-diazaspiro[4.5]decan-8-yl)propoxy]imidazo[1,2-a]pyridin-3-yl]benzamide] |
| 0.1 to 100 nM | 0.01 to 10 nM | 0.01 to 10 nM | COc1cc(-c2cnc3cc(OCC(O)CN4CCOCC4)ccn23)cc(OC(F)F)c1C(=O)NC1CC1 (stereo not drawn) [Cpd 330, N-cyclopropyl-2-(difluoromethoxy)-4-[7-(2-hydroxy-3-morpholino-propoxy)imidazo[1,2-a]pyridin-3-yl]-6-methoxy-benzamide] |
| 100 to 1000 nM | 0.01 to 10 nM | 0.01 to 10 nM | COc1cc(-c2cnc3cc(OCCCN4CCS(=O)(=O)CC4)ccn23)cc(OC(F)F)c1C(=O)NC1CC1 [Cpd 331, N-cyclopropyl-2-(difluoromethoxy)-4-[7-[3-(1,1-dioxo-1,4-thiazinan-4-yl)propoxy]imidazo[1,2-a]pyridin-3-yl]-6-methoxy-benzamide] |
| 0.1 to 100 nM | 0.01 to 10 nM | 0.01 to 10 nM | CCOC(=O)C1(F)CCN(CCCOc2ccn3c(-c4cc(OC)c(C(=O)NC5CC5)c(OC(F)F)c4)cnc3c2)CC1 [Cpd 363, ethyl 1-[3-[3-[4-(cyclopropylcarbamoyl)-3-(difluoromethoxy)-5-methoxy-phenyl]imidazo[1,2-a]pyridin-7-yl]oxypropyl]-4-fluoro-piperidine-4-carboxylate] |
| 100 to 1000 nM | 0.01 to 10 nM | 0.01 to 10 nM | COc1cc(-c2cnc3cc(OCCN4CCN(C)CC4)ccn23)cc(OC(F)F)c1C(=O)NC1CC1 [compound 9, N-cyclopropyl-2-(difluoromethoxy)-6-methoxy-4-[7-[2-(4-methylpiperazin-1-yl)ethoxy]imidazo[1,2-a]pyridin-3-yl]benzamide] |
| 0.1 to 100 nM | 0.01 to 10 nM | 0.01 to 10 nM | COc1cc(-c2cnc3cc(OCCN4CCCCC4)ccn23)cc(OC(F)F)c1C(=O)NC1CC1 [compound 10, N-cyclopropyl-2-(difluoromethoxy)-6-methoxy-4-[7-[2-(1-piperidyl)ethoxy]imidazo [1,2-a]pyridin-3-yl]benzamide] |
| 0.1 to 100 nM | 0.01 to 10 nM | 0.01 to 10 nM | COc1cc(-c2cnc3cc(OCCC4CCCN4C)ccn23)cc(OC(F)F)c1C(=O)NC1CC1 (stereo not drawn) [compound 17, N-cyclopropyl-2-(difluoromethoxy)-6-methoxy-4-[7-[2-(1-methylpyrrolidin-2-yl)ethoxy]imidazo[1,2-a]pyridin-3-yl]benzamide] |
| 100 to 1000 nM | 0.01 to 10 nM | 0.01 to 10 nM | COc1cc(-c2cnc3cc(OCC4CCCCN4C)ccn23)cc(OC(F)F)c1C(=O)NC1CC1 (stereo not drawn) [compound 23, N-cyclopropyl-2-(difluoromethoxy)-6-methoxy-4-[7-[(1-methyl-2-piperidyl)methoxy]imidazo[1,2-a]pyridin-3-yl]benzamide] |
| 100 to 1000 nM | 0.01 to 10 nM | 0.01 to 10 nM | CCNCCOc1ccn2c(-c3cc(OC)c(C(=O)NC4CC4)c(OC(F)F)c3)cnc2c1 [compound 37, N-cyclopropyl-2-(difluoromethoxy)-4-[7-[2-(ethylamino)ethoxy]imidazo[1,2-a]pyridin-3-yl]-6-methoxy-benzamide] |
